Data as given in US20170037086A1, “PEPTIDOMIMETIC MACROCYCLES WITH PTH ACTIVITY” (AILERON THERAPEUTICS, INC., priority 2014, published 2017).
Several values for one entry are separate records, joined by “and”; a condition that tells them apart may be missing. Equal values may be shown once. Positions of bridges follow the written chain, without caps; N, C: chain ends. Non-standard residues stand in square brackets, D forms with d. hArg = N=C(N)NCCCC[C@H](N)C(=O)O; S5 = C=CCCC[C@](C)(N)C(=O)O

Legend:
PTH receptor type 2 = PTH receptor type 2 (UniProt P49190 25-550, limits assumed); assay: cell-based or functional assay
[1] = test system: PTH (1-34) induced hypercalcemia; assay: TPTx rat model of PTH (1-34) induced hypercalcemia; format: in vivo; details: for Ionized calcium, Avg. / Total calcium, Avg. / Ionized calcium, individual animals / Total calcium, individual animals: Group 2 Vehicle/PTH; for Ionized calcium, Avg. / Total calcium, Avg.: TPTx rats, PTH 1.25 μg/kg/h IV infusion
Experimental: PTH Antagonist in a TPTx Rat Model of PTH (1-34) Induced Hypercalcemia
Experiments were conducted assess the effect of a PTH antagonist SP#63 in a thyroparathyroidectomized (TPTx) rat model of PTH (1-34) induced hypercalcemia. Thyroid hormone was given as supportive therapy prior to start of PTH infusion.
SP#63 or the vehicle for SP#63 was administered as an intravenous (IV) bolus in PTH infused thyroparathyroidectomized (TPTx) Sprague-Dawley rats. SP#63 was administered at 0.925 mg/kg and 1.850 mg/kg, 1 to 3 min before the initiation of the IV infusion. PTH (administered at 1.25 μg/kg/h) or the vehicle for PTH were infused via a femoral catheter over a period of 6 hours at a rate of 1 mL/kg/h. Total and ionized calcium were measured from blood samples collected at 0, 2, 4 and 6 hours during the IV infusion.

human PTH1 receptor = target: T1, human PTH1 receptor (human, UniProt Q03431 27-593); assay: cell-based or functional assay
T1 sequence (looked up): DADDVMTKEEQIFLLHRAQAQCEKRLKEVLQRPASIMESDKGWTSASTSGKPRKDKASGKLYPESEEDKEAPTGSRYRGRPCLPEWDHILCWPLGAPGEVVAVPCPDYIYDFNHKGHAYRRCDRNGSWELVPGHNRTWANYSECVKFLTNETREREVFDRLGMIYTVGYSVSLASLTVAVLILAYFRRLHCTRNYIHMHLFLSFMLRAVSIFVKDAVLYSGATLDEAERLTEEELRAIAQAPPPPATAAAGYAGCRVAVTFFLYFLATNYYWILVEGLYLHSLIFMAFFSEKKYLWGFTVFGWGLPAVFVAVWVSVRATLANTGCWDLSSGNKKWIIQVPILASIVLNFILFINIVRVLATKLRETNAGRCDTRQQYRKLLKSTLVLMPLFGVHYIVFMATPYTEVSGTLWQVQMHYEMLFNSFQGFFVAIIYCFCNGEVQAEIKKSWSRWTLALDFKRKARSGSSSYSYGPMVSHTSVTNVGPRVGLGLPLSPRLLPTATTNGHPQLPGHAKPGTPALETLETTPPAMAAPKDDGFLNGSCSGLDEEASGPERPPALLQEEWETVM

Chain of PTH receptor type 2 (P49190 25-550 limits assumed): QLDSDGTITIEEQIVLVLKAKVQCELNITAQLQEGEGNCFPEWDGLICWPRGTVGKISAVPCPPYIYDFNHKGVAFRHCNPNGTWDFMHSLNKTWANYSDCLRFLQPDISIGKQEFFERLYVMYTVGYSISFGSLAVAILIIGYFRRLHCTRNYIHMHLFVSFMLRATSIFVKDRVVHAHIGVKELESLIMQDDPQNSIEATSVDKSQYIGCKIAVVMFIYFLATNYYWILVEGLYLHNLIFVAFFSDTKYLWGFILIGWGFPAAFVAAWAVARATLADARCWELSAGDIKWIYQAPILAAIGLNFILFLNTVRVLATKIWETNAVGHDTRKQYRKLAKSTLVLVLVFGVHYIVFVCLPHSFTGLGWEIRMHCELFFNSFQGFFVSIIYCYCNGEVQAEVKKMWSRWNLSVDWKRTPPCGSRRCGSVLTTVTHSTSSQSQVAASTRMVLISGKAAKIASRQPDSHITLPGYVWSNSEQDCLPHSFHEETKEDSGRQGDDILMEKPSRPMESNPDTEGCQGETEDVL

## TIP-39 (from UniProt Q96A98 62-100) (ligand)
PTH receptor type 2
  calcium flux, EC80: 4.1 nM

## PTH (1-34)
[1]; 2 h
  Ionized calcium, Avg.: 4.13 mg/dL
  Total calcium, Avg.: 8.28 mg/dL
[1]; 4 h
  Ionized calcium, Avg.: 4.62 mg/dL
  Total calcium, Avg.: 9.14 mg/dL
[1]; 6 h
  Ionized calcium, Avg.: 4.99 mg/dL
  Total calcium, Avg.: 9.92 mg/dL
[1]; time 0
  Ionized calcium, Avg.: 3.36 mg/dL
  Total calcium, Avg.: 7.22 mg/dL
[1]; animals 2001-2005, 2 h
  Ionized calcium, individual animals: 4.08 mg/dL and 3.27 mg/dL and 4.85 mg/dL and 4.68 mg/dL and 3.75 mg/dL
  Total calcium, individual animals: 8.2 mg/dL and 6.6 mg/dL and 9.8 mg/dL and 9.3 mg/dL and 7.5 mg/dL
[1]; animals 2001-2005, 4 h
  Ionized calcium, individual animals: 4.58 mg/dL and 3.88 mg/dL and 5.29 mg/dL and 5.02 mg/dL and 4.34 mg/dL
  Total calcium, individual animals: 9.1 mg/dL and 7.6 mg/dL and 10.5 mg/dL and 9.8 mg/dL and 8.7 mg/dL
[1]; animals 2001-2005, 6 h
  Ionized calcium, individual animals: 5.06 mg/dL and 4.15 mg/dL and 5.71 mg/dL and 5.23 mg/dL and 4.79 mg/dL
  Total calcium, individual animals: 10.1 mg/dL (2×) and 8.3 mg/dL and 11.4 mg/dL and 9.7 mg/dL
[1]; animals 2001-2005, time 0
  Ionized calcium, individual animals: 3.21 mg/dL and 3.07 mg/dL and 4.01 mg/dL and 3.16 mg/dL
  Total calcium, individual animals: 6.7 mg/dL and 6.4 mg/dL and 8.4 mg/dL and 8.3 mg/dL and 6.3 mg/dL
[1]; PTH infusion 1.25 μg/kg/h with vehicle for SP#63, 3.36 mg/dL at 0 h
  ionized calcium at 6 h: 4.99 mg/dL
[1]; PTH infusion 1.25 μg/kg/h with vehicle for SP#63, 7.22 mg/dL at 0 h
  total calcium at 6 h: 9.92 mg/dL

## BIM-44002 (peptide)
PTH receptor type 2
  calcium flux IC50: > 10000 nM

## H-LL[S5]QRA[S5]WIQD[S5]RRR[S5]WLHHLIAEIHTA-NH2 (staple 12-16, 3-7) [SP# 232]
Human PTH1 receptor
  IC50, SaOS-2 cAMP with PTH[1-84] or PTHrP[1-34] as ligand: < 10 nM

## H-LLHQ[hArg]AK[S5]IQD[S5]RRR[S5]WLH[S5]LIAEIHTAEY-NH2 (staple 8-12, 16-20) [SP# 67]
PTH receptor type 2
  calcium flux IC50: < 10000 nM

## H-LLHQRA[S5]WIQ[S5]LRRR[S5]WLR[S5]KLQDVHNF-NH2 (staple 7-11, 16-20) [SP# 246]
Human PTH1 receptor
  IC50, SaOS-2 cAMP with PTH[1-84] or PTHrP[1-34] as ligand: < 10 nM

## H-LLHQRAKWIQD[S5]RRR[S5]WLRKKLQDVHNF-NH2 (staple 12-16) [SP# 247]
Human PTH1 receptor
  IC50, SaOS-2 cAMP with PTH[1-84] or PTHrP[1-34] as ligand: < 10 nM

## H-LLH[S5]RAK[S5]IQDLRRRFW[S5]HHL[S5]AEIHTA-NH2 (staple 18-22, 4-8) [SP# 226]
Human PTH1 receptor
  IC50, SaOS-2 cAMP with PTH[1-84] or PTHrP[1-34] as ligand: < 10 nM

## H-LLHQRA[S5]WIQ[S5]LRRREW[S5]RKK[S5]QDVHNF-NH2 (staple 7-11, 18-22) [SP# 245]
Human PTH1 receptor
  IC50, SaOS-2 cAMP with PTH[1-84] or PTHrP[1-34] as ligand: < 10 nM

## H-LL[S5]QRA[S5]WIQDLRRRFW[S5]HHL[S5]AEIHTA-NH2 (staple 18-22, 3-7) [SP# 228]
Human PTH1 receptor
  IC50, SaOS-2 cAMP with PTH[1-84] or PTHrP[1-34] as ligand: < 10 nM
